Laboratory results reported in US8022235B2, “Compositions of phospholipid ether boronic acids and esters and methods for their synthesis and use” (Cellectar, Inc., priority 2007, dated 2011).

Columns and labels:
[1] = system: PC3 human prostate cancer xenografts; assay: Single-dose 125I-NM404 treatment, tumor volume, PC3 xenografts; assay type: in vivo, SCID mice; details: single dose 250 μCi and 500 μCi, n=6 per group
Experimental: Tumor volumes were calculated using formula (width)^2×(length)/2 and expressed as mean±SEM, n=6 for each group. ⋄ Cold NM404, control;
(§1) The inventors have previously shown that ^125I-labeled PLE analogs such as NM404 are effective in targeting tumor therapies to tumor cells following single injection and fractionated dosing. For assessment of efficacy of ^125I-NM404 treatment, assessments of tumor volume were made until 10 weeks post-injection or until no animal in the control group was alive, whatever came first. Summarizing the results, control animals show rapidly growing tumors over the 10-week assessment period. See, FIGS. 2 and 3. […] Tumor volumes are stable and the same tumors appear “collapsed” (the tumor surface has caved in). Additionally, the hair above the tumors fell off confirming substantial accumulation of radioactivity in these tumors, FIG. 4. […] (See also, for example, U.S. patent application Ser. No. 11/671,403 hereby incorporated in its entirety for all purposes.)

[2] = system: A549 human non-small cell lung cancer xenografts; assay: Single-dose 125I-NM404 treatment, tumor volume, A549 xenografts; assay type: in vivo, SCID mice
Excerpt: FIG. 3 illustrates antitumor effect of single-dose treatment with ^125I-125-NM404 at doses of 50 (∘), 150 (□), 250 (⋄) and 500 (∘) μCi in SCID mice bearing A549 human non-small cell lung cancer xenografts. In FIG. 3, control animals show rapidly growing tumors over the 10-week assessment period. […] Tumor volumes are stable and some tumors appear “collapsed” (the tumor surface has collapsed). Additionally, hair above the tumors fell off confirming substantial accumulation of radioactivity in these tumors.
FIG. 4 is an image showing one of the tumor-bearing animals treated with 250 μCi of ^125I-NM404 at 4 weeks following injection. The hair above the tumor has fallen off, apparently due to the significant accumulation of radioactivity in the tumor. […] The measurement method for determining outer tumor dimensions may have underestimated tumor volume response following dosing with ^125I-NM404;
as §1

[3] = system: Mammary SCC and ACC; assay: Imaging and tissue distribution, tumor model; therapeutic responses at imaging doses; assay type: in vivo, Apc^Min/+mouse; details: single intravenous injection, ^125I-labeled, imaging dose 15-20 μCi/20 g mouse
Excerpt: (§2) During the course of mouse tumor uptake and retention studies with “imaging” doses (15-20 μCi/20 g mouse) of ^125I-labeled NM404, several apparent therapeutic responses have been observed (unpublished results). […] Some of these animals also lost all hair above larger mammary tumors at around 8 days after injection. Moreover, these mice also get intestinal tumors and usually suffer from intestinal bleeding resulting in severe anemia, which renders their feet white. […] Another compelling example of tumor regression is illustrated in FIG. 13. Two litter mates each received SCC1 and SCC6 xenografts in their left and right flanks, respectively. One mouse received a single injection of ^125I-NM404 (20 μCi). […] These coincidental findings were reconfirmed in two separate age-matched groups each involving more than 6 mice.

[4] = system: animal tumor models; assay: Imaging and biodistribution across animal tumor models (general statements)
Excerpt: See, for example, U.S. patent application Ser. Nos. 10/906,687, 11/177,740, 11/316,620 and 11/382,645. Due to deficiencies in metabolic phospholipase enzymes in the membranes of malignant tumor cells, the prevailing hypothesis for this specificity is that phospholipid ether analogs become trapped exclusively in tumor cell membranes because of their inability to become metabolized and eliminated by the cancerous cell. Thus, the differential clearance rates of phospholipid ethers from normal cells versus neoplastic tumor cells are responsible for this specificity.
The reason for the retention of PLE and analogs in cancer cells remains unknown. Without being held to any particular theory, however, the prevailing hypothesis, is that radioiodinated PLE and APC analogs become trapped in tumor cell membranes because of their inability to be metabolized and eliminated. On the other hand, such lipid molecules are metabolized and cleared by normal tissues, including the liver.
These PLE analogs are specifically designed to incorporate aromatic radioiodine in order to render the molecule stable towards in vivo deiodination.

[5] = system: Adrenal RL-251; assay: Imaging and tissue distribution, tumor model; assay type: in vivo, SCID Mouse; details: days 1 through 14
[6] = system: SCC1 and 6; assay: Imaging and tissue distribution, tumor model; tumor regression; assay type: in vivo
Excerpt: as §2

Q: Which results are given for `C[N+](C)(C)CCOP(=O)([O-])OCCCCCCCCCCCCCCCCCCc1ccc([125I])cc1` [^125I-NM404]?
A: change in tumor volume / primary tumor growth [1]: significant effects in inhibiting the progression of primary tumor growth; tumor volume vs control ([2]; 50 μCi dose group): did not show any difference when compared with control animals; tumor volume vs control ([2]; 150, 250 and 500 μCi dose groups): substantial and prolonged treatment effect; effect on the tumor (appearance) ([2]; 250 μCi, 4 weeks following injection (FIG. 4)): causes central necrosis; dose dependence of effect on tumor volume ([2]; single dose 50-500 μCi): dose-linear effect; tumor volume vs control ([2]; single dose 50 and 150 μCi (FIG. 3 legend)): did not show any difference when compared to control animals; tumor volume vs control ([2]; single dose 250 and 500 μCi (FIG. 3 legend)): substantial and prolonged treatment effect; tumor growth [3]: tumor growth remains static; time over which tumors could be imaged ([4]; mammary and prostate tumors in mice): > 60 days; duration of tumor retention ([4]; mice, post-injection): 20 to 60 days; tissue distribution, blood, spleen and kidney [5]: distribution in blood, spleen and kidney reduced; tissue distribution, tumor [5]: accumulation in the tumor increased; tumor regression ([6]; by day 41 after injection (FIG. 12)): significantly reduced; health of treated animal ([6]; single injection 20 μCi): quite healthy 80 days after injection; tumor regression ([6]; single injection 20 μCi, SCC1 and SCC6 flank xenografts, untreated litter mate died 21 days later): regressed significantly
